Source: US9662328B2, “Targeting human thymidylate kinase induces DNA repair toxicity in malignant tumor cells” (NATIONAL YANG-MING UNIVERSITY, priority 2010, dated 2017)
Values joined by “and” are separate entries in the source; they are usually repeats but may differ in a detail not shown here. Equal values may be shown once.

Experiments:
HCT-116 p53−/− cells = assay: γH2AX foci staining to indicate DNA damage (genotoxicity); format: cell-based
Description: FIG. 1. TMPK knockdown has no genotoxicity but promoting doxorubicin-induced cell death in p53 proficient and deficient colon cancer cells. […] These cells were fixed for γH2AX foci staining to indicate DNA damage and Western blotting analysis. (B-C) FITC-labeled annexin V apoptosis assay. (B) p53(+/+) HCT-116 were and (−/−) HCT-116 cells were infected with or without lentiviral TMPK^shRNA for 72 hr, treated with 0.5 μM doxorubicin for 24 hr (C) Cells were with or without lentiviral TS^shRNA for 72 hr with a subsequent 1 μM doxorubicin treatment for 24 hr as indicated Cells were then stained with FITC-labeled annexin V and observed by fluorescent microscopy. Green-positive indicates apoptotic cell.
For γH2AX staining, cells were fixed with 4% paraformaldehyde for 30 min at room temperature and were incubated with TBS (50 mM Tris-HCl, pH 7.4, 150 mM NaCl) plus 0.3% Triton X-100 for 5 min. The coverslips were blocked with MAXblock™ (Active Motif) for 1 h at 37° C., followed by staining with primary antibodies: anti-γH2AX monoclonal antibody (1:1000), anti-Rad51 polyclonal
To understand the differential DNA damage effect of blocking thymidylate kinase (TMPK) and thymidylate synthase (TS) in colon cancer cells. TMPK or TS expression was depleted in colon cancer cells, HCT-116 p53^−/−, by infection with lentivirus expressing corresponding shRNA. […]

hTMPK [1] = target: T1, hTMPK (Homo sapiens, UniProt P23919); assay: Inhibition constant (Ki) by NADH-coupled TMPK assay; format: biochemical; conditions: pre-incubated with 0.5 μg purified hTMPK for 10 min
T1 sequence (P23919 1-212): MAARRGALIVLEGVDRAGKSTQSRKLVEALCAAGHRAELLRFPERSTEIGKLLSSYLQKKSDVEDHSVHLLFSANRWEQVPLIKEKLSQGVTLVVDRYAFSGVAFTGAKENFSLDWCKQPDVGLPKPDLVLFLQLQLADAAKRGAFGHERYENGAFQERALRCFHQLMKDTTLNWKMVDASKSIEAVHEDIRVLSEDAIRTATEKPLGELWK
Description: (§1) All reactions were performed in 96-well plates in an assay volume of 100 μl. The activity of hTMPK was measured at 25° C. using a modified NADH coupled colorimetric assay as described (Agarwal et al., 1978; Miyata et al., 2003; Ostermann et al., 2003), in which purified hTMPK was added to the buffer containing 100 mM Tris-HCl, pH 7.5, 100 mM KCl, 10 mM MgCl2, 0.5 mM phosphoenol pyruvate, 0.25 mM NADH, 5 units of lactate dehydrogenase, 4 units of pyruvate kinase, 1 mM ATP, and 200 μM dTMP. The change of NADH was measured by reading the absorbance at 340 nm. One unit of TMPK activity is defined as the conversion of […] of TMP to TDP per minute.
For determination of inhibition constant (Ki value), the inhibitor at the indicated concentration was pre-incubated with 0.5 μg of purified hTMPK protein for 10 min, and the initial velocity of the TMPK reaction was measured in the presence of ATP (1 mM) and different concentrations of TMP (2-200 μM) or in the presence of TMP (200 μM) and different concentrations of ATP (5-1000 μM) using NADH-coupled TMPK assay as described in the Methods of the Invention section. The Ki value was calculated from an equation of Ki=[I]/(Vmax/Vmax^I−1) wherein [I] is the concentration of inhibitor, and Vmax^I is the maximal velocity in the presence of inhibitor.

hTMPK [2] = target: T1, hTMPK; assay: In vitro inhibitory activity against human TMPK at 2 μM; format: biochemical; conditions: test compounds at 2 μM concentration
Description: (§2) The TMPK reaction was started by adding purified hTMPK in 50 μl of TMPK assay buffer (100 mM Tris-HCl, pH 7.5, 100 mM KCl, 10 mM MgCl2, 50 μM ATP and 100 μM dTMP) in 96 wells plate at 25° C. for 10 min and terminated by adding 200 μl of DTNB (100 μM), followed by transferring 10 μl of reaction solution to a white 96-wellplate containing 90 μl of luciferase assay buffer (50 mM Glycine, 0.5 mM EDTA and 5 mM EDTA, pH 7.0, 0.1 μg of luciferase, 50 μM luciferin and 0.1% BSA). The luminescence was measured with a luminescence counter (Packard).
as §1
The in vitro inhibitory activities of test compounds (at 2 μM concentration) against human TMPK are shown in Table 3 and compared with that of YMU1 and YMU2.

hTMPK [3] = target: T1, hTMPK; assay: IC50 determination by enzymatic assay; format: biochemical
Description: as §2, §1
In one embodiment, the IC50 values were determined by enzymatic assay.

[4] = system: Human RM osteosarcoma cells; assay: Colony formation analysis of osteosarcoma cells; format: cell-based; conditions: for effect on suppressing colony formation, single agent: compound 5 μM or doxorubicin 20 nM alone, 2 days, replated for 1 week; for colony formation, combination with doxorubicin: compound 5 μM plus doxorubicin 20 nM
Description: FIG. 5. The effect of TMPK inhibitors alone or in combination with a chemotherapeutic agent on viability of osteosarcoma cells. (A) Human RM osteosarcoma cells (a representative bone cancer cells) were seeded at 2×10^4/35 mm dish and treated with Doxorubicin (20 nM), compound I-d-7 (5 μM), compound I-d-6 (5 μM) as indicated. After 2 days, medium was replaced with fresh medium without drug and cells were replated to a 24-well plate at 600 cells/well for 1 week for colony formation analysis.

MDA-MB231 cell = assay: Doxorubicin sensitization in MDA-MB231 cell treatment; format: cell-based; conditions: compound at 2 μM
Description: Cells plated into a 96-well plate (10^3 cells/well) were treated and cell viability was measured by MTS assay (Promega) (Cory et al., 1991). An annexin V-fluorescein isothiocyanate (FITC) apoptosis kit (Calbiochem) was used to detect apoptosis.

| inhibition at 2 µM (hTMPK [2]) [%] | IC50 (hTMPK [3]) | SMILES | effect on suppressing colony formation, single agent [4] | further results |
| --- | --- | --- | --- | --- |
|  |  | O=c1[nH]c(=O)n([C@H]2C[C@H](O)[C@@H](CO)O2)cc1F [FdUrd, 5-fluoro-2′deoxyuridine] |  | DNA lesions in nuclei (γH2AX foci) (HCT-116 p53−/− cells; YMU1 2 μM for 2 days, FdUrd 2 μM for 1 day): gave DNA lesions in nuclei |
| 79 ± 12 |  | Cc1cc(C)c2c(=O)n(CC(=O)N3CCN(C(=O)Cn4sc5ccccc5c4=O)CC3)sc2n1 [I-b-5, 4-[(3-Oxo-benzo[d]isothiazol-2-yl)acetyl]-1-[(4,6-dimethyl-3-15 oxoisothiazolo[5,4-b]pyridin-2-yl)acetyl]piperazine] |  | Ki (hTMPK [1]): 170 ± 70 nM |
| 48 ± 5 | 1100 nM | Cc1cc(N)nc2sn(CC(=O)N3CCN(C(=O)Cn4sc5nc(N)cc(C)c5c4=O)CC3)c(=O)c12 [I-b-6, 1,4-Bis[(6-amino-4-methyl-3-oxoisothiazolo[5,4-b]pyridin-2-yl)acetyl]piperazine] |  |  |
| 87 ± 5 |  | CC(C)(C)OC(=O)N1CCN(C(=O)Cn2sc3ccc(F)cc3c2=O)CC1 [I-d-6, Tert-butyl 4-(2-(5-fluoro-3-oxobenzo[d]isothiazol-2(3H)-yl)acetyl)piperazine-1-carboxylate] | significant effect on suppressing colony formation | colony formation, combination with doxorubicin [4]: further decreased colony formation |
| 66 ± 7 |  | CC(C)(C)OC(=O)N1CCN(C(=O)Cn2sc3cc(F)ccc3c2=O)CC1 [I-d-7, Tert-butyl 4-(2-(6-fluoro-3-oxobenzo[d]isothiazol-2(3H)-yl)acetyl)piperazine-1-carboxylate] | significant effect on suppressing colony formation | colony formation, combination with doxorubicin [4]: further decreased colony formation |
| 100 ± 7 | 1290 nM and 1730 nM | O=C(NCC(=O)N1CCN(C(=O)Cn2sc3ccccc3c2=O)CC1)Nc1ccccc1 [I-e-5, 1-(2-Oxo-2-(4-(2-(3-oxobenzo[d]isothiazol-2(3H)-yl)acetyl)piperazin-1-yl)ethyl)-3-phenylurea] |  |  |
| 89 ± 6 | 450 nM | O=C(Cn1sc2ccccc2c1=O)N1CCN(C(=O)Cn2sc3ccccc3c2=O)CC1 [I-e-8, 1,4-Bis[(3-oxo-benzo[d]isothiazol-2-yl)acetyl]piperazine] |  |  |
|  |  | CCOC(=O)N1CCN(C(=O)Cn2sc3nc(C)cc(C)c3c2=O)CC1 [YMU1] |  | enhancement on doxorubicin sensitization (MDA-MB231 cell): 30 fold |
|  |  | COc1cccc2c1C(=O)c1c(O)c3c(c(O)c1C2=O)C[C@@](O)(C(=O)CO)C[C@@H]3O[C@H]1C[C@H](N)[C@H](O)[C@H](C)O1 [doxorubicin, reference compound] | no effect |  |

| SMILES | inhibition at 2 µM (hTMPK [2]) [%] | IC50 (hTMPK [3]) | effect on suppressing colony formation, single agent [4] | further results |
| --- | --- | --- | --- | --- |
| CCOC(=O)N1CCN(C(=O)Cn2sc3nc(C)cc(C)c3c2=O)CC1 [YMU1, reference compound] | 42 ± 15 | 2210 ± 60 nM |  | DNA lesions in nuclei (γH2AX foci) (HCT-116 p53−/− cells; human, 2 μM): not |
